This is an account of results in patent US20160103138A1, “METHODS FOR ANALYZING ELASTIC FIBER INJURY MARKERS AND DIAGNOSIS OF DISEASES ASSOCIATED WITH ELASTIC FIBER INJURY” (priority 2013, published 2016).

The subject of data set [1] is desmosine and isodesmosine (DI) in plasma (elastin degradation). The data set is described as follows: Effect of alpha-1 antitrypsin augmentation therapy on DI levels in plasma of AATD patients. It is filed as in vivo, human. The conditions noted are these: for change in DI in plasma from baseline: 11 patients, intravenous replacement. From the text:
(§1) There were 4 sources of body fluid samples analyzed: 1) plasma samples from 47 patients receiving alpha-1 antitrypsin protein from human blood sources, commercially available, compared with 50 AATD patients not on AAT augmentation and 50 normal subjects; 2) 11 patients with homozygous severe AATD who provided plasma samples before the start of IV therapy and then 12 and 24 weeks later; 3) 10 patients with homozygous AATD receiving IV replacement provided BALF at 12 weeks (the dose administered was 60 mg/kg body weight each week in the above patient groups); and 4) patients received a recombinantly produced AAT which was administered as an aerosol for 8 weeks. (Spencer et al., 2005) (the administered dose was 250 mg of aerosolized transgenic AAT each day). Eight patients provided BALF, 12 patients provided plasma samples, and 5 patients provided urine samples at baseline and after 8 weeks of aerosol therapy.
(§2) The following 3 methods were used to define the alpha-1 genomes: 1) genotype by allelic discrimination using TaqMan (S&Z alleles), ABI 7500 Fast Real-time PCR System; 2) AAT Level by Immunogenic assay, Dade Behring Nephelometer BN II and 3) phenotyping by isoelectric focusing, Pharmacia Biotech Multiphore II. The method of analysis for desmosine and isodesmosine (DI) in plasma, BALF and urine is as described. (Ma et al., 2011) The content of DI in BALF was calculated as the concentration of DI per ml of BALF using urea as a marker of dilution. (Rennard et al., 1986).
(§3) High performance liquid chromatography and tandem mass spectrometry as described (Ma et al., 2011) were used.
(§4) The T-test was used to compare the effects of augmentation therapy on the large patient cohorts. The paired T-test was used to compare the changes before and after therapy in individuals. The linear regression was used to determine the relationships of age to levels of DI.

Another data set has as its system urinary desmosine. The conditions noted are these: cited from earlier work.
Data set [2] has as its system leukotriene B-5, interleukin-8 and neutrophil elastase in sputum. The settings on record: after weeks of supplementation therapy with I.V. AAT (Stockley et al., 2002); cited from earlier work.
Data set [3] has as its system desmosine and isodesmosine (DI) in epithelial lining fluid obtained by BALF (elastin degradation). Description: Effect of alpha-1 antitrypsin augmentation therapy on DI levels in BALF of AATD patients. It is filed as in vivo, human.
Text: as §1
The following 3 methods were used to define the alpha-1 genomes: 1) genotype by allelic discrimination using TaqMan (S&Z alleles), ABI 7500 Fast Real-time PCR System; 2) AAT Level by Immunogenic assay, Dade Behring Nephelometer BN II and 3) phenotyping by isoelectric focusing, Pharmacia Biotech Multiphore II. […] (Ma et al., 2011) The content of DI in BALF was calculated as the concentration of DI per ml of BALF using urea as a marker of dilution. […]

The subject of data set [4] is urinary desmosine and isodesmosine (DI). The data set is described as follows: Effect of aerosol alpha-1 antitrypsin augmentation therapy on urinary DI (free and total). It is filed as in vivo, human. The conditions noted are these: before vs after aerosol augmentation therapy.
Text: as §1, §2, §3, §4

The conditions of data set [5]: 6N HCl (Ma, S. et al., 2011); cited from earlier work.
Data set [6] in a line: Stability of DES-d4 (IS) in 6N HCl at 110° C., recovery by LC-MS/MS. It is filed as physicochemical. The conditions noted are these: heated at 110° C. for 24, 48, and 72 hours.
Procedure: Step 1: Acid hydrolysis: DES-d4 IS (5 ng) was added to the analytical samples (0.5 ml) in a glass vial with equal volumes of concentrated HCl (37%). Air in the vial was displaced with nitrogen, and was heated at 110° C. for 24 hours. The hydrolyzed sample was filtered and evaporated to dryness.
Step 3: LC-MS/MS analysis: A TSQ Discovery electrospray tandem mass spectrometer (Thermo Fisher Scientific) was used for LC-MS/MS analysis. HPLC conditions used were a 2 mm×150 mm dC18 (3 μm) column (Waters, Mass.) and the mobile phase A (7 mM HFBA/5 mM NH4Ac in water) and B (7 mM HFBA/5 mM NH4Ac in 80% acetonitrile) were programmed linearly from 100% A to 82% A in 12 m. Quantitation was performed by selected reaction monitoring (SRM) of the transitions of both DES and IDS (m/z 526 to m/z 481+m/z 397) and the IS (m/z 530 to m/z 485), with collision energy set at 33 V for both transitions, collision gas pressure was 1.5 mTorr, tube lens at 132 V, with sheath gas pressure set at 45 and auxiliary gas pressure at 6 units and ion spray voltage at 3.8 kV. The scan time was set at 1.00 ms and both quadrupoles (Q1 and Q3) were at 0.7 Da FWHM.
The stability of DES-d4 and reliability during use as the IS for the isotope dilution LC-MS/MS analysis of DES and IDS were examined. […]

Consider “AAT: alpha-1 antitrypsin protein from human blood sources, commercially available, given intravenously as augmentation therapy”, for which the “change in DI in plasma from baseline” value is given as −13.9% in data set [1] (12 weeks of therapy) and −20.3% in data set [1] (24 weeks of therapy). Moreover, the “mean level of DI in plasma” value in data set [1] (AATD patients receiving augmentation therapy (IV, 60 mg/kg each week), n=50, no augmentation 0.36, normal 0.22) amounted to 0.25 ng/mL. Also, the “plasma levels of DI, mean±SD” value in data set [1] (FIG. 7, augmentation group, n=50, no augmentation 0.36±0.01, normal 0.22±0.04) amounted to 0.25±0.01. For the same compound, the “drop of mean post-treatment urinary desmosine from pre-treatment levels” value with urinary desmosine (two AATD patients, monthly infusions of 260 mg/kg, followed 18 months (Stone et al., 1995)) is “exceeded 35%”. The “levels of leukotriene B-5, interleukin-8 and neutrophil elastase in sputum” value in data set [2] is listed as “reduced levels”. In data set [3] (10 patients, before vs 12 weeks after IV augmentation therapy, p=0.0273), the “overall average change of DI in BALF” value is listed as −37%.
Take “aerosolized transgenic AAT: recombinantly produced AAT which was administered as an aerosol for 8 weeks”: the “reduction in the free component of DI excretion in urine” value in data set [4] (4 of the 5 subjects) is 0.1-13.0%. In addition, the “average reduction of percent of free DI over total DI excretion in urine” value in data set [4] (5 subjects, p=0.0625) came out at 21.6%. The “increase in excretion of free DI in urine” value in data set [4] (one of the 5 subjects) was 75.3%. The “mean decrease of DI in plasma” value in data set [1] (12 patients, before vs after 8 weeks aerosol augmentation therapy (250 mg each day), not statistically significant (p=0.1675)) worked out at 6.5%. In addition, the “mean increase in DI in plasma” value in data set [1] (the 3 of 12 patients with increase, aerosol augmentation therapy, not statistically significant) came to 4.3%. Further, the “average decrease of DI in plasma” value in data set [1] (the 9 of 12 patients with reduction, aerosol augmentation therapy, p=0.0142) turned out to be 12.1%. The “mean reduction of DI levels in BALF” value in data set [3] (8 patients, AAT by aerosol administration, 8 weeks, p=0.0078) is listed as −58.5%.
Consider “Prolastin: AAT supplementation product (Bayer Company)”, for which the “urinary desmosine excretion during supplementation vs run in” value in the data set with urinary desmosine (12 AATD subjects, weekly 60 mg/kg for 4 weeks (Gottlieb et al., 2000)) was “unchanged”.
Turning to `NC(CCCC[n+]1cc(CCC(N)C(=O)O)cc(CCC(N)C(=O)O)c1CCCC(N)C(=O)O)C(=O)O` (stereo not drawn) [IDS, isodesmosine], in data set [5], the “stability during acid hydrolysis (in words)” value is “stable”.
For `N[C@@H](CCCc1c(CC[C@H](N)C(=O)O)c[n+](CCCC[C@H](N)C(=O)O)cc1CC[C@H](N)C(=O)O)C(=O)[O-]` [DES, Desmosine], the “stability during acid hydrolysis (in words)” value in data set [5] is recorded as “stable”.
`[2H]C([2H])(C[C@H](N)C(=O)O)C([2H])([2H])c1c(CC[C@H](N)C(=O)O)c[n+](CCCC[C@H](N)C(=O)O)cc1CC[C@H](N)C(=O)O` [DES-d4]: in data set [6], the “stability of DES-d4 under acid hydrolysis (in words)” value was “stable with nearly complete recovery”.
